Laboratory results as given in US20250049953A1, “TREATMENT AND METHOD FOR INHIBITING LATE NA CURRENT” (THE TRUSTEES OF COLUMBIA UNIVERSITY IN THE CITY OF NEW YORK, priority 2022, published 2025).
No end group written: not given here.

What was measured:
NaV1.5 IQ/AA mutant = target: T1, NaV1.5 IQ/AA mutant (Homo sapiens, UniProt Q14524, I1908A/Q1909A); test: Multichannel recordings of late Na current, NaV1.5 IQ/AA mutant in HEK293 cells; format: cell-based; details: for change in INa,L: co-expression with NaV1.5 IQ/AA in HEK293 cells
T1 construct: expressed in transfected cells; host or cells: HEK293 (ATCC CRL1573)
From the text: The human NaV1.5 channel corresponds to clone M77235.1 (GenBank) and is subcloned into pGW 1 vector with HindIII and SaII. To facilitate construction of channelopathic mutations in the channel carboxy-terminus, we introduced silent mutations into NaV1.5 to introduce an NruI cutting site near the channel carboxy-terminus (5329-gtggccacg-5337 into 5329-gtCgcGacg-5337). Subsequently, we used overlap-extension PCR and ligated the PCR product into NaV1.5/pGW1 using NruI and XbaI restriction sites (mutations: E1784K, S1904L, IQ/AA, and Q1909R). For generating the ΔKPQ and IFM/IQM mutations, we used overlap-extension PCR and ligated in NaV1.5/pGW1 following restriction digest using KpnI and XbaI site. For generation of NaV1.5 truncations, we PCR amplified relevant segments using a forward primer upstream of the KpnI site and a reverse primer that truncated at the appropriate location (Δ1810 and Δ1885) and included an XbaI site and ligated into NaV1.5/pW1 vector. For LILA/WICW mutations, we used overlap extension and used restriction site AgeI and NheI for subsequent ligation. All segments subjected to PCR amplification were verified by sequencing. For generating human FHF2 splice-variants, we synthesized gene fragments and ligated into pcDNA3 using BamHI/EcoRI restriction sites. Human FHF1A and FHF1B were subcloned into ECFP-N3 vector, FHF2 splice variants and FHF3 were subcloned into pcDNA3. Truncations of the FHF1A amino-terminus (NT) were generated as fusion proteins with Venus fluorescent protein in the carboxy-terminus by encoding the relevant segments as noted in FIG. 12A in the forward PCR primer and the fluorophore as the template. Following PCR amplification, each fragment was ligated into pcDNA3 following restriction digest using NheI and XhoI enzymes. Plasmid encoding PKA catalytic subunit was constructed from pDONR222-PRKACA as described previously.
HEK293 cells (ATCC CRL1573) were cultured on glass coverslips in 60-mm dishes and transfected using the Ca^2+-phosphate method as previously described. For electrophysiology experiments, we co-transfected 4-8 μg of cDNA encoding the desired channel variant with 4 μg of YFP, and 1 μg of simian virus 40 T-antigen. For experiments evaluating effect of FHF, we transfected the relevant FHF variant at 1:1 ratio as the α-subunit. For experiments considering competition between FHF1/2 isoforms, we co-transfected FHF1B and FHF2S variants at specified ratios (ranging from 1:1 to 1:10). The culture media was replaced following 4 h of transfection. Electrophysiology recordings were then performed at room temperature 1-2 days following transfection.
Multichannel records were obtained in the on-cell configuration with either HEK293 cells or in aMVM as in our previous study. The pipette contained (in mM): 140 NaCl; 10 HEPES; 0.5 CaCl2; at 300 mOsm, adjusted with tetraethylammonium methanesulfonate; and pH 7.4 adjusted with tetraethylammonium hydroxide. To zero membrane potential, the bath contained (in mM): 132 K^+-glutamate; 5 KCl; 5 NaCl; 3 MgCl; 2 EGTA; 10 glucose; 20HEPES; at 300 mOsm adjusted with glucose; and pH 7.4 adjusted with NaOH. Data were acquired at room temperature using the integrating mode of an Axopatch 200A amplifier (Axon Instruments, Molecular Devices). Patch pipettes (3-10 MΩ) were pulled from ultra-thick-walled borosilicate glass (BF200-116-10; Sutter Instruments) using horizontal puller (P-97, Sutter Instruments), fire polished with a microforge (Narishige), and coated with Sylgard™ brand silicone elastomer (Dow Corning). Elementary currents were low-pass filtered at 2 kHz with a four-pole Bessel filter and digitized at 200 kHz with an ITC-18 unit (Instrutech), controlled by custom MATLAB software (Mathworks). For each pulse, we obtained P/8 leak pulses. Leak subtraction was performed using an automated algorithm which fit the kinetics of the leak current or the capacitive transient with convex optimization with L1 regularization. […]

[1] = acute animal toxicity tests; cited from earlier work
[2] = target: NaV1.5 IFM/IQM mutant (human) (UniProt Q14524); test: cell-based or functional assay
[3] = target: NaV1.5 LILA/WICW mutant (human) (UniProt Q14524); test: cell-based or functional assay
[4] = target: NaV1.5 IQ/AA mutant (human) (UniProt Q14524); test: cell-based or functional assay
[5] = in vivo; cited from earlier work
neuronal Na channels = details: cited from earlier work
late Na current = details: cited from earlier work
[6] = tested on: aMVM from non-transgenic mice; test: Multichannel recordings of INa,L in cultured aMVM from non-transgenic mice; format: cell-based, mouse; details: 5 μM Forskolin following shRNA-mediated silencing of FHF2
From the text: As such, we sought to determine whether “protective” FHF variants may inhibit phosphorylation-dependent INa,L. To maximally upregulate INa,L, we co-expressed wild-type NaV1.5 with either (1) the catalytic Cα subunit of protein kinase A (PKA) or (2) a constitutively-active Ca^2+/CaM dependent kinase II (CaMKIIT286D) mutant in HEK293 cells. This maneuver likely triggers runaway phosphorylation of NaV1.5 and thereby furnishes a baseline to discern any potential FHF-dependent change. As expected, we observed an ˜5 fold increase in INa,L in the presence of the PKA Cα subunit (FIGS. 3D and 3E), and a 3-fold increase with CaMKIIT286D (FIGS. 3E and 11B). […] Encouraged by these findings, we dissected the functional role of this modulation in native cardiomyocytes (FIGS. 3F and 3G).
Multichannel records were obtained in the on-cell configuration with either HEK293 cells or in aMVM as in our previous study. The pipette contained (in mM): 140 NaCl; 10 HEPES; 0.5 CaCl2; at 300 mOsm, adjusted with tetraethylammonium methanesulfonate; and pH 7.4 adjusted with tetraethylammonium hydroxide. […]
Mice ventricular myocytes were isolated by enzymatic digestion using a Langendorff perfusion apparatus as previously described. […] The efficacy of viral transduction was assessed 24-48 hours post infection.

[7] = tested on: ischemia induced arrhythmias; details: rats; cited from earlier work
[8] = tested on: Ca^2+ channels and K^+ channels; details: cited from earlier work
[9] = target: T2, NaV1.5 S1904L mutant channel (Homo sapiens, UniProt Q14524, S1904L); test: Multichannel recordings of late Na current, NaV1.5 S1904L; format: cell-based
T2 construct: expressed in transfected cells; host or cells: HEK293 (ATCC CRL1573)
Protocol: HEK293 cells (ATCC CRL1573) were cultured on glass coverslips in 60-mm dishes and transfected using the Ca^2+-phosphate method as previously described. For electrophysiology experiments, we co-transfected 4-8 μg of cDNA encoding the desired channel variant with 4 μg of YFP, and 1 μg of simian virus 40 T-antigen. […] The culture media was replaced following 4 h of transfection. Electrophysiology recordings were then performed at room temperature 1-2 days following transfection.

[10] = incubation with 10 μM ranolazine

Molecule: 9-32: FHF1A amino-terminal truncation peptide, residues 9-32, Venus fusion (LIRQKRQARESNSDRVSASKRRSS; also: Venus fusion, end not given here; UniProt P61328 9-32, looked up, fragment)
- change in INa,L (NaV1.5 IQ/AA mutant): increase late channel openings

Molecule: Cc1noc(Cn2nc3ccc(-c4ccc(OC(F)(F)F)cc4)cn3c2=O)n1 [GS-462808]
- liver findings [1]: caused liver lesions

Molecule: FHF1A (human fibroblast growth factor homologous factor 1, splice variant A) (from UniProt P61328 1-243)
- time constant of the excess inactivation (single-exponential decay) [2]: 17.8 ms
- time constant of the excess inactivation (single-exponential decay) [3]: 12.3 ms

Molecule: FHF1B (human) (from UniProt P61328 1-181)
- INa,L (Rpersist), multichannel recordings in HEK293 cells [4]: 4 fold
- INa,L, multichannel recordings in HEK293 cells [4]: 3 fold
- Rpersist against the ratio of FHF1B to FHF2S cDNA (ρ), half-maximal effect (ratio of FHF1B to FHF2S cDNA) [4]: 0.4

Molecule: 18-39: FHF1A amino-terminal truncation peptide, residues 18-39, Venus fusion (ESNSDRVSASKRRSSPSKDGRS; also: Venus fusion, end not given here; UniProt P61328 18-39, looked up, fragment)
- change in INa,L (NaV1.5 IQ/AA mutant): increase late channel openings

Molecule: FC(F)(F)Oc1ccc(-c2ccc3nnc(C(F)(F)F)n3c2)cc1 [GS-458967]
- brain penetration [5]: high brain penetration
- block of neuronal Na channels (neuronal Na channels): use-dependent block
- potency/efficacy for blocking late Na current (late Na current): high efficacy

Molecule: FixR (FHF-inhibiting-X-region), FHF1A amino-terminal residues 1-39, expressed as a Venus fusion (peptide)
- fold reduction in INa,L (FIG. 5C) [4]: 10 to 15 fold

Molecule: 1-18: FHF1A amino-terminal truncation peptide, residues 1-18, Venus fusion (MAAAIASSLIRQKRQARE; also: Venus fusion, end not given here; UniProt P61328 1-18, looked up, fragment)
- change in INa,L (NaV1.5 IQ/AA mutant): increase late channel openings

Molecule: C=C[C@@]1(C)CC(=O)[C@]2(O)[C@@]3(C)[C@@H](O)CCC(C)(C)[C@@H]3[C@H](O)[C@H](OC(C)=O)[C@@]2(C)O1 [Forskolin]
- increase in INa,L [6]: 20 fold

Molecule: COc1ccccc1SC[C@@H](C)CN[C@@H]1COc2ccccc2SC1 [F15845]
- effect on ischemia induced arrhythmias [7]: prevented ischemia induced arrhythmias
- potency/efficacy for blocking late Na current (late Na current): very high efficacy

Molecule: 12-17: FHF1A amino-terminal truncation peptide, residues 12-17, Venus fusion (QKRQAR; also: Venus fusion, end not given here; UniProt P61328 12-17, looked up, fragment)
- change in INa,L (NaV1.5 IQ/AA mutant): increase late channel openings

Molecule: COc1ccccc1OCC(O)CN1CCN(CC(=O)Nc2c(C)cccc2C)CC1 (stereo not drawn) [ranolazine]
- interactions with other ionic currents [8]: non-selectivity interactions with other ionic currents
- reduction in INa,L [9, 10]: 3 fold
- inhibition of INa,L ([9]; ranolazine, FIG. 13I): inhibits INa,L
- reduction in INa,L (NaV1.5 IQ/AA mutant; [10]): 3 fold
- inhibition of INa,L (NaV1.5 IQ/AA mutant; ranolazine, FIG. 13G): modest inhibition
- potency/efficacy for blocking late Na current (late Na current): suboptimal potency

B1: FHF1A amino terminus: entire FHF1A amino terminus expressed as a peptide (peptide)
peptide: MAAAIASSLIRQKRQARESNSDRVSASKRRSSPSKDGRSLCERHVLGVFSKVRFCSGRKRPVRRRP
modifications: left off: large carriers
notes: entire FHF1A amino terminus expressed as a peptide
- change in INa,L (NaV1.5 IQ/AA mutant): strongly inhibited
